Data: PMC10591299, “Targeting SHP2 with an Active Site Inhibitor Blocks Signaling and Breast Cancer Cell Phenotypes” (ACS Bio & Med Chem Au, 2023)

Assays:
SHP1 = molecular target: T1, SHP1 (Homo sapiens, UniProt P29350); test: PTPase assay, GST-fusion PTP domain of SHP1, DiFMUP substrate; type: biochemical
T1 construct: The GST fusion PTP domains of SHP1 and PTP1B were expressed and purified in a fashion similar to that of SHP2; GST; made in house
T1 sequence (P29350 244-515 limits assumed): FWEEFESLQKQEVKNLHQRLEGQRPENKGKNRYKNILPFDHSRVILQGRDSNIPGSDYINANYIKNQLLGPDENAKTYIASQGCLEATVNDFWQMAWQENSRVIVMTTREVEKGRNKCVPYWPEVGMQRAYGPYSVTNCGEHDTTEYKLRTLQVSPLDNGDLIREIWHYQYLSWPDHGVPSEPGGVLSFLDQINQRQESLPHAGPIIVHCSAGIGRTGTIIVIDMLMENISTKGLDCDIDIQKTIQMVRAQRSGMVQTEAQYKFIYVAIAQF
Protocol: After completion of synthesis, both CNBCA and CNBBA were purified on silica gel, and purity was determined by HPLC. The purified compounds were then tested for their effect on the SHP2 enzyme activity and on the activity of the selected control PTPs (SHP1 and PTP1B) by the phosphotyrosyl phosphatase (PTPase) assay as described previously.[30],[31] First, the GST fusion of the PTP domains of SHP2, SHP1, and PTP1B were produced and purified as reported by us previously.[32] The reactions were performed in a buffer containing 10 mM Tris-HCl (pH 7.2), 100 mM NaCl, 1 mM EDTA, 1 mM dithiothreitol (DTT), and 0.01% Tween-20. […] The complete mixture was incubated at 37 °C for 20 min, and fluorescence intensity was measured by the Synergy 4 plate reader at the excitation and emission wavelengths of 360 and 460 nm, respectively. The half inhibitory concentration (IC50) value of each compound was calculated and plotted using Graphpad Prism software. […]
We used the PTPase assay described previously[30],[31] to evaluate the effect of the newly synthesized compounds on the enzymatic activity of SHP2, SHP1, and PTP1B. […] The mixtures were incubated at 37 °C for 20 min and transferred to 96 well plates, and the fluorescence intensity was measured by a Synergy 4 plate reader at the excitation and emission wavelengths of 360 and 460 nm, respectively. […]

BT474 cells [1] = test: Cell growth in 2D culture, BT474; type: cell-based; details: BT474, 500 nM, 72 h; vehicle treated cells grew to confluency
Protocol: (§1) Since SHP2 is essential for the growth and transformation of BC cells,[8],[9],[11] we determined the effect of SHP2 inhibition with CNBCA in 2D and 3D culture systems. For the effect on cell growth, BC cells (BT474 and MDA-MB468) were seeded in 2D culture and treated with a single concentration of CNBCA (500 nM), the concentration that provided a 50% inhibition of SHP2 mediated signaling in BT474 cells. Images were collected at the start and every 24 h for a total of 72 h (3 days). […] For effect on anchorage independent growth, approximately 10^6 cells were seeded in soft agar as described previously,[24] and treated with CNBCA at 500 nM concentration for 10 days with refeeding and adjustment of compound concentration. […] Finally, the effect of CNBCA on cancer stem cell properties was determined by the suspension assay, in which only cells with stem-like properties only can grow and form mammospheres.[7],[24],[36] Approximately 10^6 cells were seeded in nonadherent 6 cm plates and treated with CNBCA (500 nM) for 10 days with complementation of media and drug concentration.

MDA-MB468 cells [2] = test: Cell growth in 2D culture, MDA-MB468; type: cell-based; details: MDA-MB468, 500 nM, 72 h; vehicle treated cells grew to confluency
Protocol: as §1

BT474 cells [3] = test: Mammosphere formation in suspension culture, BT474; type: cell-based; details: BT474, 500 nM, 10 days, versus vehicle
Protocol: as §1
(§2) To further evaluate the anti-breast cancer cell effect of CNBCA, we treated cells seeded in a suspension culture known as the mammosphere assay. In this assay, cells with cancer stem cell properties can grow and form sphere-like cellular aggregates known as mammospheres.[7],[38] […]

MDA-MB468 cells [4] = test: Mammosphere formation in suspension culture, MDA-MB468; type: cell-based; details: MDA-MB468, 500 nM, 10 days, versus vehicle
Protocol: as §1, §2

CCCCCCCCCOc1ccc(-c2ccc(C(=O)O)cc2)cc1CCCC(=O)O [CNBCA, 3′-(3-carboxypropyl)-4′-(nonyloxy)-[1,1′-biphenyl]-4-carboxylic acid]
IC50 (SHP1; PTP domain, 1 nM enzyme, 35 μM DiFMUP): 34.6 µM
selectivity ratio SHP1 versus SHP2 (SHP1; SHP2 IC50 as reference): 39.77 fold
cell growth in 2D culture (BT474 cells [1]): half-confluent
cell growth in 2D culture (MDA-MB468 cells [2]): half-confluent
mammosphere formation (BT474 cells [3]): fewer and smaller mammospheres
mammosphere formation (MDA-MB468 cells [4]): fewer and smaller mammospheres
